Data reported in BigSolDB 2.1.

O=C1C=CC(=O)O1
solubility (mole fraction)
Settings | 278.15 K | 283.15 K | 288.15 K | 293.15 K | 298.15 K | 303.15 K | 308.15 K | 313.15 K | 318.15 K | 323.15 K
in DMF | 0.0297 | 0.0372 | 0.0466 | 0.0584 | 0.0707 | 0.087 | 0.104 | 0.125 | 0.15 | 0.176
in acetic acid | 0.0156 | 0.0216 | 0.0281 | 0.0369 | 0.0472 | 0.0605 | 0.0767 | 0.0962 | 0.119 | 0.146
in acetone | 0.00999 | 0.0136 | 0.0191 | 0.0264 | 0.0336 | 0.0453 | 0.0599 | 0.0768 | 0.0977 | 0.124
in acetonitrile | 0.012 | 0.0173 | 0.0232 | 0.0307 | 0.0408 | 0.0526 | 0.0682 | 0.0873 | 0.111 | 0.139
in ethyl acetate | 0.00906 | 0.0125 | 0.017 | 0.0219 | 0.0303 | 0.0398 | 0.0518 | 0.0665 | 0.0857 | 0.107
in isopropanol | 0.00617 | 0.00942 | 0.013 | 0.0178 | 0.0241 | 0.0321 | 0.043 | 0.0552 | 0.0712 | 0.0909
in methanol | 0.0211 | 0.0282 | 0.0359 | 0.0465 | 0.0582 | 0.0719 | 0.0886 | 0.109 | 0.132 | 0.159
in n-butanol | 0.00359 | 0.00539 | 0.00796 | 0.0116 | 0.0168 | 0.0236 | 0.033 | 0.0455 | 0.0618 | 0.0828
